Measured values published in patent US20140243292A1, “SUBSITUTED 2-(CHROMAN-6-YLOXYL)-THIAZOLES AND THEIR USE AS PHARMACEUTICALS” (Sanofi, priority 2011, published 2014).
Counter-ions that a name gives are not always drawn.

What follows are molecules tested against T1, human NCX1 (Homo sapiens, UniProt P32418) (assay: NCX1 inhibition, reverse mode (Ca2+ influx into cells), FLIPR Fluo-4 assay). Settings: NCX1 reverse mode; at 30 μM; read-out: Inhibition in % at 30 μM (NCX1rv; IC50 value not determined).
T1 construct: expressed in transfected cells
Type: cell-based
Excerpt: The sodium/calcium exchanger NCX1 can transport calcium ions and sodium ions through the cell membrane. The transport is an exchange of Ca^2+ and Na^+ in two directions depending on membrane potential and ion gradients. At the first direction, named “forward mode” or “calcium export mode”, Ca^2+ is transported out of the cell and Na^+ is transported into the cell. At the other direction, named “reverse mode” or “calcium import mode”, the transport directions are vice versa. The effect of the compounds of the invention on NCX1 was determined in CHO cells stably expressing human NCX1 (gene symbol SLC8A1; cf. WO 2009/115238). The assay is based on the monitoring of intracellular Ca^2+ concentrations using a calcium-sensitive fluorescence dye which is detected by means of a FLIPR device (Fluorimetric Imaging Plate Reader, Molecular Devices).
The assay is based on the monitoring of intracellular Ca^2+ concentrations using the calcium-sensitive dye Fluo-4. CHO cells expressing NCX1 were loaded with the dye by means of the acetoxymethyl ester Fluo-4 AM (Invitrogen, F14202), which is cleaved intracellularly by esterase activity to yield the charged species of free Fluo-4. After an preincubation period with the test compound, Gramicidine (Sigma, G5002) was added. Gramicidine is an ionophor for Na^+ ions mediating an increase of intracellular Na^+ ions. Consequently, intracellular Na^+ ions are exchanged against extracellular Ca^2+ ions (Ca^2+ influx, reverse mode). The intracellular elevation of Ca^2+ ions was detected by measuring the fluorescence of Fluo-4 at a wavelength of 520 nm by a FLIPR device.
Briefly, for the reverse mode transport assay 18000 cells per well were seeded into a 96 well microplate (Corning COSTAR 3904) and incubated overnight in culture medium (1× Nut Mix F12 (Ham) (Gibco, 21765-029); 10% (v/v) fetal calf serum (PAA Gold, A15-649); 450 μg/ml Geneticin (Gibco, 10131-027)). A total volume of 100 μl medium per well was used. For the preparation of the FLIPR assay, the culture medium was removed from the plates and 100 μl of dye solution (2 μM Fluo-4 AM; 0.02% (v/v) Pluronic F-127 (20%, Invitrogen, P3000MP); 0.1% (v/v) bovine albumin solution (30% (v/v), Sigma, A9205) in assay buffer (133.8 mM NaCl (Sigma, S5886); 4.7 mM KCl (Sigma, P3911); 1.25 mM MgCl2 (Merck, 1.05833.0250); 3.5 mM CaCl2 (Merck, 1.02083.0250); 5 mM glucose (Sigma, G7021); 10 mM Hepes (Sigma, H4034); 0.01% (v/v) Pluronic F-127 (5%, Sigma, P2443); 2.5 mM Probenecid (Maybridge, SB00915EB); pH 7.4)) were added into each well. The plates were incubated in the dark at room temperature for 80 min. After the incubation period, the dye solution was removed and the wells were washed with 100 μl of assay buffer. Then 80 μl of a solution of the test compound in assay buffer in different concentrations were added into the wells. The plates were incubated at 16° C. for 45 min. Meanwhile a 60 μM solution of Gramicidine in assay buffer (4° C.) was prepared and stored in the wells of a 96 well microplate (96 well microplate, polypropylene, U-shape (Greiner Bio-One, 650201)) at 4° C. until measurement was started. The fluorescence monitoring was performed at 240 measuring points with measurement intervals of 2 sec. After the fifth measuring point, 40 μl of the Gramicidine solution were added to each well of the assay plates to give a final Gramicidine concentration of 20 μM. For the determination of the IC50 values the minimal fluorescence value was subtracted from the maximal fluorescence value for all measuring points. The calculation of the IC50 values via the percentage inhibitions of Ca^2+ influx into cells (reverse mode) effected by the test compound was performed in Biost@t Speed 2.0.

inhibition at 30 µM | SMILES
38% | O=C(O)CNC(=O)c1cnc(Oc2ccc3c(c2)CCC(c2cccnc2)O3)s1 (stereo not drawn) [compound 260]
46% | CC(C)C[C@@H](NC(=O)c1cnc(Oc2ccc3c(c2)CC[C@@H](c2ccccc2)O3)s1)C(=O)OC(C)(C)C [compound 228]

Same assay, conditions: inhibition of NCX1 in reverse mode (Ca2+ influx into cells); read-out: NCX1rv IC50

SMILES | IC50
CN(Cc1ccnc(N2CCCC2)c1)C(=O)c1cnc(Oc2ccc3c(c2)CCC(c2ccccc2)O3)s1 (stereo not drawn) [compound 26] | 300 nM
CC(C)Oc1cccc(C2CCc3cc(Oc4ncc(C(=O)NCc5ccncc5)s4)ccc3O2)c1 (stereo not drawn) [compound 96] | 800 nM
Cc1cc(C)n(CCNCc2cnc(Oc3ccc4c(c3)CCC(c3ccccc3)O4)s2)n1 (stereo not drawn) [compound 150] | 800 nM
O=C(CN1CC[C@@H](O)C1)NCc1cnc(Oc2ccc3c(c2)CCC(c2ccccc2)O3)s1 (stereo partly drawn) [compound 175] | 400 nM
CC[C@H](C)[C@@H](CO)NC(=O)c1cnc(Oc2ccc3c(c2)CC[C@@H](c2ccccc2)O3)s1 [compound 208] | 400 nM
O=C(NCCO)c1cnc(Oc2ccc3c(c2)CC[C@@H](c2ccccc2)O3)s1 [compound 204] | 100 nM
O=C(Cc1ccncc1)NCc1cnc(Oc2ccc3c(c2)CCC(c2ccccc2)O3)s1 (stereo not drawn) [compound 43, hydrochloride] | 300 nM
COC(=O)C(C)(Cc1ccccc1)NC(=O)c1cnc(Oc2ccc3c(c2)CC[C@@H](c2ccccc2)O3)s1 (stereo partly drawn) [compound 218] | 2500 nM
c1ccc(C2CCc3cc(Oc4ncc(CNCc5ccnc(N6CCOCC6)c5)s4)ccc3O2)cc1 (stereo not drawn) [compound 162] | 400 nM
C[C@H](NC(=O)c1cnc(Oc2ccc3c(c2)CC[C@@H](c2ccccc2)O3)s1)C(=O)O [compound 191] | 600 nM
Cc1nc(Oc2ccc3c(c2)CC[C@@H](c2ccccc2)O3)sc1C(=O)NCc1ccno1 [compound 168] | 200 nM
Nc1cc(C(=O)NCc2cnc(Oc3ccc4c(c3)CCC(c3ccccc3)O4)s2)ccn1 (stereo not drawn) [compound 85] | 10900 nM
CCC(CC)NCc1cnc(Oc2ccc3c(c2)CCC(c2ccccc2)O3)s1 (stereo not drawn) [compound 106] | 500 nM
CCOC(=O)C1(NC(=O)c2cnc(Oc3ccc4c(c3)CC[C@@H](c3ccccc3)O4)s2)CC1 [compound 188] | 600 nM
CN1CCN(C(=O)c2cnc(Oc3ccc4c(c3)CC[C@@H](c3ccccc3)O4)s2)CC1 [compound 213, hydrochloride] | 800 nM
O=C(NCc1ccnc(N2CCCC2)c1)c1cnc(Oc2ccc3c(c2)CCC(c2ccccc2)O3)s1 (stereo not drawn) [compound 25] | 400 nM
O=C(O)CNC(=O)c1cnc(Oc2ccc3c(c2)CC[C@@H](c2ccccc2)O3)s1 [compound 192] | 500 nM
Nc1cc(CNC(=O)c2cnc(Oc3ccc4c(c3)CCC(c3cccc(F)c3)O4)s2)ccn1 (stereo not drawn) [compound 12] | 200 nM

SMILES | IC50
CN1CCN(Cc2cnc(Oc3ccc4c(c3)CCC(c3ccccc3)O4)s2)CC1 (stereo not drawn) [compound 122] | 800 nM
O=C(NCCO)c1cnc(Oc2ccc3c(c2)CCC(c2cccnc2)O3)s1 (stereo not drawn) [compound 249] | 1400 nM
O=C(NCc1cnc(Oc2ccc3c(c2)CCC(c2ccccc2)O3)s1)c1ccnc(O)c1 (stereo not drawn) [compound 88] | 5000 nM
O=S(=O)(NCc1cnc(Oc2ccc3c(c2)CCC(c2ccccc2)O3)s1)c1cccnc1 (stereo not drawn) [compound 47, hydrochloride] | 100 nM
Cc1ccn(CC(=O)NCc2cnc(Oc3ccc4c(c3)CCC(c3ccccc3)O4)s2)n1 (stereo not drawn) [compound 74] | 300 nM
O=C(NCc1ccncc1)c1cnc(Oc2ccc3c(c2)CCC(c2cccc(O)c2)O3)s1 (stereo not drawn) [compound 174, hydrochloride] | 800 nM
Cc1cc(C)nc(CNC(=O)c2cnc(Oc3ccc4c(c3)CCC(c3ccccc3)O4)s2)n1 (stereo not drawn) [compound 33] | 200 nM
CN(C)c1cc(CNC(=O)c2cnc(Oc3ccc4c(c3)CCC(c3ccccc3)O4)s2)ccn1 (stereo not drawn) [compound 29] | 100 nM
O=C(N[C@H](CO)c1ccccc1)c1cnc(Oc2ccc3c(c2)CCC(c2cccnc2)O3)s1 (stereo partly drawn) [compound 251] | 1100 nM
Cc1nc(Oc2ccc3c(c2)CC[C@@H](c2ccccc2)O3)sc1C(=O)NCc1ccnc(Cl)c1 [compound 178, 4-Methyl-2-((S)-2-phenyl-chroman-6-yloxy)-thiazole-5-carboxylic acid (2-chloro-pyridin-4-ylmethyl)-amide hydrochloride] | 400 nM
Cc1c(S(=O)(=O)NCc2cnc(Oc3ccc4c(c3)CCC(c3ccccc3)O4)s2)cnn1C (stereo not drawn) [compound 133] | 400 nM
COc1cc(CNC(=O)c2cnc(Oc3ccc4c(c3)CCC(c3ccccc3)O4)s2)ccn1 (stereo not drawn) [compound 10] | 600 nM
FC(F)(F)CNCc1cnc(Oc2ccc3c(c2)CCC(c2ccccc2)O3)s1 (stereo not drawn) [compound 107] | 200 nM
COC(=O)CNC(=O)c1cnc(Oc2ccc3c(c2)CC[C@@H](c2ccccc2)O3)s1 [compound 181] | 200 nM
O=C(NCc1nnc2ccccn12)c1cnc(Oc2ccc3c(c2)CCC(c2cccc(F)c2)O3)s1 (stereo not drawn) [compound 17, hydrochloride] | 200 nM
COC(=O)C1(C)CCN(C(=O)c2cnc(Oc3ccc4c(c3)CC[C@@H](c3ccccc3)O4)s2)C1 (stereo partly drawn) [compound 225] | 500 nM
CC(C)[C@H](NC(=O)c1cnc(Oc2ccc3c(c2)CC[C@@H](c2ccccc2)O3)s1)C(=O)O [compound 197] | 600 nM
O=C(c1cnc(Oc2ccc3c(c2)CC[C@@H](c2ccccc2)O3)s1)N1CCC[C@H]1CO [compound 205] | 300 nM

The next lines start with the values.

IC50 | SMILES
100 nM | OCCNCc1cnc(Oc2ccc3c(c2)CCC(c2ccccc2)O3)s1 (stereo not drawn) [compound 311]
800 nM | CCOC(=O)[C@H](Cc1ccccc1)NC(=O)c1cnc(Oc2ccc3c(c2)CCC(c2cccnc2)O3)s1 (stereo partly drawn) [compound 262]
300 nM | CC(C)NC(=O)c1cnc(Oc2ccc3c(c2)CCC(c2ccccc2)O3)s1 (stereo not drawn) [compound 320]
550 nM | CCn1nccc1CNC(=O)c1cnc(Oc2ccc3c(c2)CCC(c2cccc(F)c2OC)O3)s1 (stereo not drawn) [compound 365]
400 nM | Cc1noc(C)c1CCC(=O)NCc1cnc(Oc2ccc3c(c2)CC[C@@H](c2ccccc2)O3)s1 [compound 296]
300 nM | C[C@H](N)C(=O)NCc1cnc(Oc2ccc3c(c2)CC[C@@H](c2ccccc2)O3)s1 [compound 303]
1500 nM | CCn1nccc1CNC(=O)c1cnc(Oc2cc3c(cc2C)OC(c2ccccc2C)CC3)s1 (stereo not drawn) [compound 359]
400 nM | NCC1CCCN1C(=O)c1cnc(Oc2ccc3c(c2)CC[C@@H](c2ccccc2)O3)s1 (stereo partly drawn) [compound 291]
3200 nM | O=C(NC(CCO)C1CC1)c1cnc(Oc2ccc3c(c2)CCC(c2cccnc2)O3)s1 (stereo not drawn) [compound 252]
600 nM | O=C(NCCO)c1cnc(Oc2ccc3c(c2)CCC(c2cncc(F)c2)O3)s1 (stereo not drawn) [compound 253]
600 nM | Cc1cc2c(cc1Oc1ncc(C(=O)NCCO)s1)CCC(c1ccccc1C)O2 (stereo not drawn) [compound 357]
600 nM | O=C(c1cnc(Oc2ccc3c(c2)CC[C@@H](c2ccccc2)O3)s1)N1CCC2(CCCNC2)C1 (stereo partly drawn) [compound 290]
200 nM | OCCN(CCO)Cc1cnc(Oc2ccc3c(c2)CC[C@@H](c2ccccc2)O3)s1 [compound 258]
10100 nM | CC(C)(C)[C@H](NC(=O)c1cnc(Oc2ccc3c(c2)CCC(c2cccnc2)O3)s1)C(=O)O (stereo partly drawn) [compound 273]
5500 nM | Cc1cccc(C)c1C1CCc2cc(Oc3ncc(C(=O)NCc4ccno4)s3)ccc2O1 (stereo not drawn) [compound 331]
92 nM | O=C(NCc1ccno1)c1csc(Oc2ccc3c(c2)CC[C@@H](c2ccccc2)O3)n1 [compound 353]
